Experimental data from ChEMBL document CHEMBL1201862, “PubChem BioAssay data set” (2004).
The source made the active and inactive calls.

Tests used:
[1] = target: Beta-2 adrenergic receptor (Homo sapiens, UniProt P07550); experiment: ADRB2 activation measured by internalization – cell-based, FAP fluorogen, flow cytometry, cherry pick 1, dose response (AID 588763); type: functional
[2] = target: T1, Fatty acid synthase (Homo sapiens, UniProt P49327); experiment: inhibition of human FAS-TE enzyme activity – biochemical, endpoint fluorescence intensity, uHTS hits, dose response (AID 624327); type: functional;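 further: fluorescence from hydrolysis of an O-methyl fluorescein acyl ester substrate by the enzyme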
T1 sequence (P49327 whole entry): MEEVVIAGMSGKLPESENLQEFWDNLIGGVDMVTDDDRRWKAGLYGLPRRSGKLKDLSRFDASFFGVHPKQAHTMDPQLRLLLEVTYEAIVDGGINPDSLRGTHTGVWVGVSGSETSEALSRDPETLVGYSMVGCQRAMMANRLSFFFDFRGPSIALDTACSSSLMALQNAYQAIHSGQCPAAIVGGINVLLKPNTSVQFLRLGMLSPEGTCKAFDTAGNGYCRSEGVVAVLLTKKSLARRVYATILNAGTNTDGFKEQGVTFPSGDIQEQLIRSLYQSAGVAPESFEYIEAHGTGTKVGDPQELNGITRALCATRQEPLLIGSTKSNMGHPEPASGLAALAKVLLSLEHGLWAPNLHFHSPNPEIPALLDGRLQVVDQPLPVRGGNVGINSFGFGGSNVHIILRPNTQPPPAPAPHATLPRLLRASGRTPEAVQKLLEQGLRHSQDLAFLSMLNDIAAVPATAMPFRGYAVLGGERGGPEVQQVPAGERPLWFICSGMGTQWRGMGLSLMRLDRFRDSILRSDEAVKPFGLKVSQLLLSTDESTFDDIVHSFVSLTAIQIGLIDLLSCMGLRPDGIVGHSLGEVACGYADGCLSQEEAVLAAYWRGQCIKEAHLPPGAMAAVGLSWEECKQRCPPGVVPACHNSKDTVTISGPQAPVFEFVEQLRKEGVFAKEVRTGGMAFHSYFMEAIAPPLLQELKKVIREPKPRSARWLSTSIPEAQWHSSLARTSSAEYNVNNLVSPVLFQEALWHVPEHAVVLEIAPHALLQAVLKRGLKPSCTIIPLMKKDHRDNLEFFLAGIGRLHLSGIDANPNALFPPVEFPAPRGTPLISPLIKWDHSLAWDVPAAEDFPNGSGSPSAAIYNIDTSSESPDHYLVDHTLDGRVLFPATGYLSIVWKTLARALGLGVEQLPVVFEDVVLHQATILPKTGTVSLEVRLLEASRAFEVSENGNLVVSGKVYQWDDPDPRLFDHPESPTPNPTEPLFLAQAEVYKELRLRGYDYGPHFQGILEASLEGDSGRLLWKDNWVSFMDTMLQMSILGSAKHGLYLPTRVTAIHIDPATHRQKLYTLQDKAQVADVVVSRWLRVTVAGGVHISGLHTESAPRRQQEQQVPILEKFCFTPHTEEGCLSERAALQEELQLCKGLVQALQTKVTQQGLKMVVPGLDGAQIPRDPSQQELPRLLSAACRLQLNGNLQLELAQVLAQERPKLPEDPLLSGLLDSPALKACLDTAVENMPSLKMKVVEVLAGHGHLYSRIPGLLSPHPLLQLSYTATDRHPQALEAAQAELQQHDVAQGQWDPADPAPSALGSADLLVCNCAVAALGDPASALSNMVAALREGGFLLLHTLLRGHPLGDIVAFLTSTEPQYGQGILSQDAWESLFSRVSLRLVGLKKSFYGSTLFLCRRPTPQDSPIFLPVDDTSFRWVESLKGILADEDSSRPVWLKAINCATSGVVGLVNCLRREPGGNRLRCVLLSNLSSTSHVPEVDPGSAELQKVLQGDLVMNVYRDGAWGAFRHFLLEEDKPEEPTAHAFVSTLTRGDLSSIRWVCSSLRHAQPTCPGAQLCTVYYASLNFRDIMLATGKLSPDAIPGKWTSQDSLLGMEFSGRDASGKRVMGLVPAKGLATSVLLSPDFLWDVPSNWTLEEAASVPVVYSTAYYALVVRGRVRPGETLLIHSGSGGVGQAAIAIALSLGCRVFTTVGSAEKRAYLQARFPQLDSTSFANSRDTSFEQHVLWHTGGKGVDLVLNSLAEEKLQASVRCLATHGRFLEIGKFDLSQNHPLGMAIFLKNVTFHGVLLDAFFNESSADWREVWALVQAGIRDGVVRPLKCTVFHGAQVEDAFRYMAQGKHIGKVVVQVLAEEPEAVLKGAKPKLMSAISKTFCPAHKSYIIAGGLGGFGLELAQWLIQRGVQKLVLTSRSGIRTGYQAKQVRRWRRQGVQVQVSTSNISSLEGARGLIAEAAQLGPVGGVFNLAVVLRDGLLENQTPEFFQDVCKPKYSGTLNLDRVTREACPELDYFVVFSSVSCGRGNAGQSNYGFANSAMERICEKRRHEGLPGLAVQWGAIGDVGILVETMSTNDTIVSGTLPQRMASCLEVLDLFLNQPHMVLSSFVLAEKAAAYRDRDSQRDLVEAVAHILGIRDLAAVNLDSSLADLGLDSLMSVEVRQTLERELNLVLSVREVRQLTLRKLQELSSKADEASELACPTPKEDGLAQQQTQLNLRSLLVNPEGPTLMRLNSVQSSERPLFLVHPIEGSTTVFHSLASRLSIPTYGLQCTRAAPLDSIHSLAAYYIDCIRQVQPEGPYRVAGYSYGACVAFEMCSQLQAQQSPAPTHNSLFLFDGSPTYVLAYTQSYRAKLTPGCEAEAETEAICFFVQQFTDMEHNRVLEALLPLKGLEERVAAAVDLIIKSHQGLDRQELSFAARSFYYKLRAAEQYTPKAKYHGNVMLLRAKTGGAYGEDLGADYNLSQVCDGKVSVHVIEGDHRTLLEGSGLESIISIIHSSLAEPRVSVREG

[3] = target: T1, Fatty acid synthase; experiment: inhibition of human FAS-TE enzyme activity – biochemical, kinetic fluorescence intensity, dose response (AID 624326); type: functional;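 further: rate of fluorescence rise from hydrolysis of a fluorogenic O-methyl fluorescein ester substrate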
[4] = viability of uninfected HEp-2 cells – cell-based, HTS, cytotoxicity control for RSV inhibitor project, dose response (AID 2410); type: functional; conditions: human respiratory syncytial virus
[5] = target: T2, Aminopeptidase N (Plasmodium falciparum FcB1/Columbia, UniProt O96935); experiment: malaria alanyl aminopeptidase activity blockers – biochemical, fluorogenic H-Leu-NHMec substrate, 1536-well (AID 1445); design: species or system Plasmodium falciparum 3D7, 3D7
T2 sequence (O96935 whole entry): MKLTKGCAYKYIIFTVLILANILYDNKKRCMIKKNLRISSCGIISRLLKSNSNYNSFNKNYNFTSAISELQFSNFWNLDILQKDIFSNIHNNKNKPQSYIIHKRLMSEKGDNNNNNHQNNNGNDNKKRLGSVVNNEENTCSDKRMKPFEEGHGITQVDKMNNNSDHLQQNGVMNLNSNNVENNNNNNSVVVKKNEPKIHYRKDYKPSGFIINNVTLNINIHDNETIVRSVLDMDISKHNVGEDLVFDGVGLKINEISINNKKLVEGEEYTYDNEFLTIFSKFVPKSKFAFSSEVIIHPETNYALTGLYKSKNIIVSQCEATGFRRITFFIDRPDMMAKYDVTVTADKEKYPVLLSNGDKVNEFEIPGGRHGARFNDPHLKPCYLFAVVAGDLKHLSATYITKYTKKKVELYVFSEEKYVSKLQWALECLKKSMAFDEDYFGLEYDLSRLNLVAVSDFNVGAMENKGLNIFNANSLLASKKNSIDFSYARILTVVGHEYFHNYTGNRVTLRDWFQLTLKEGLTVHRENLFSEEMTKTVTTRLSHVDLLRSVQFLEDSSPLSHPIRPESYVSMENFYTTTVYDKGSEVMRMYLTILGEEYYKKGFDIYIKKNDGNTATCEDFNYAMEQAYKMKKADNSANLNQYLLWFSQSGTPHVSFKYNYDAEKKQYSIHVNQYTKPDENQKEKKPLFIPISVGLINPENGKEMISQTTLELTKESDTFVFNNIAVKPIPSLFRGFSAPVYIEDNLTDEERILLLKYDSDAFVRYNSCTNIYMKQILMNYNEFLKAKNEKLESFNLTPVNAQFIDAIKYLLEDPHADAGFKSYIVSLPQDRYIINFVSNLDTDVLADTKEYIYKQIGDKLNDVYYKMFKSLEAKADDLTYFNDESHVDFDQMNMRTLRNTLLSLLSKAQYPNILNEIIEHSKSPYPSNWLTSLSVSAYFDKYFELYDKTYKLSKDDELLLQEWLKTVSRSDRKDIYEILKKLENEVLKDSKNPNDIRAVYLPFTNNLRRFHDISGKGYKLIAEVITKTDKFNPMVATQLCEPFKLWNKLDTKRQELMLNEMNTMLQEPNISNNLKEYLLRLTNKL

[6] = test system: Streptococcus sp. 'group A'; experiment: Streptococcus pyogenes SK(-)GAS viability under kanamycin – luminescence, BacTiterGlo, confirmation, counter-screen for streptokinase expression inhibitor project, dose response (AID 1900); type: functional, organism-based
[7] = target: T3, Streptokinase A (Streptococcus pyogenes serotype M1, UniProt P10520); experiment: viability-normalized secreted streptokinase activity reduction – plasminogen activation absorbance, OD405, dose response (AID 1914); type: functional, Streptococcus pyogenes M1 GAS;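 further: secreted streptokinase activity via plasminogen activation per viability signal from cell pellet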
T3 sequence (P10520 whole entry): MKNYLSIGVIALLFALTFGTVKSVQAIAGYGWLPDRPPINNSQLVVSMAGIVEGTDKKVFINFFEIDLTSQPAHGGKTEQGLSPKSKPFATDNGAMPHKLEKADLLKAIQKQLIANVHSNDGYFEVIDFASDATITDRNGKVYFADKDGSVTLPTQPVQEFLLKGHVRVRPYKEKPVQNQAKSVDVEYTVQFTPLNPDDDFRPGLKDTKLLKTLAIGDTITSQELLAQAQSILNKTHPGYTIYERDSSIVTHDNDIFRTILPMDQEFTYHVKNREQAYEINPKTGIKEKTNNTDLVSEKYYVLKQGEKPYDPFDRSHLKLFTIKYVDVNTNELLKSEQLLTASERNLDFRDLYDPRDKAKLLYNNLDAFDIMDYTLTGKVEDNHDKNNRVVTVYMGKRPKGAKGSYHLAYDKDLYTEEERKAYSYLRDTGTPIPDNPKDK

[8] = target: T4, Induced myeloid leukemia cell differentiation protein Mcl-1 (Homo sapiens, UniProt Q07820); experiment: blockers of MCL1 binding to BIM peptide – biochemical, fluorescence polarization, BIM-BH3 peptide, 1536-well, dose response (AID 2217)
T4 sequence (Q07820 whole entry): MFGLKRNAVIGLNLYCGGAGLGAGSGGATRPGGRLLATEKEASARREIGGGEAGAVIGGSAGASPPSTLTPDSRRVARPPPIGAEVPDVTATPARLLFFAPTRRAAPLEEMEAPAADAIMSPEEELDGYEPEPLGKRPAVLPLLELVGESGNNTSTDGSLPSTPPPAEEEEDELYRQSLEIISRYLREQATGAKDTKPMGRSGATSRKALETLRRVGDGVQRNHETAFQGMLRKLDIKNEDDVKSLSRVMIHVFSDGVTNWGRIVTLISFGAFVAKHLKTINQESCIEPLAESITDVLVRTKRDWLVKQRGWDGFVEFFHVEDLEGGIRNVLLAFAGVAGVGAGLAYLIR

[9] = target: Estrogen receptor beta (Homo sapiens, UniProt Q92731); experiment: blockers of SRC-3 recruitment to ERβ – biochemical, ELISA, streptavidin-HRP readout, orthogonal assay, confirmation (AID 1060)
Chain of Estrogen receptor beta (Q92731 whole entry): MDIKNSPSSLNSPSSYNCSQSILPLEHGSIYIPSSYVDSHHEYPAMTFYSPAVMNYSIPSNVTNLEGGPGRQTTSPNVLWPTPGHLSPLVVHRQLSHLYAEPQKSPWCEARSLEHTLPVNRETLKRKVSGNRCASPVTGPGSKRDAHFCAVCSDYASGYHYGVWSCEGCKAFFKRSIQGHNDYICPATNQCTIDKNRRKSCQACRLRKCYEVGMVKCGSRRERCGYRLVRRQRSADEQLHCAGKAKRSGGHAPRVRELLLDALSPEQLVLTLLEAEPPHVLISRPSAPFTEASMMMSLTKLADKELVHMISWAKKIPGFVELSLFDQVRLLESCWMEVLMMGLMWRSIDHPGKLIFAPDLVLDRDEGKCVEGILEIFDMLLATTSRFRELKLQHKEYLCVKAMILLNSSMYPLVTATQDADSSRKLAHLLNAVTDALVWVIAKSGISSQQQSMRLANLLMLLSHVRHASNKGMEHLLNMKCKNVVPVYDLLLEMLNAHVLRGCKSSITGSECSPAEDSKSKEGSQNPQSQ

[10] = target: Bcl-2-like protein 1 (Homo sapiens, UniProt Q07817); experiment: blockers of BCLXL peptide binding – biochemical, fluorescence polarization, 1536-well, selectivity assay for MCL1 inhibitor project, dose response (AID 2218)
Chain of Bcl-2-like protein 1 (Q07817 whole entry): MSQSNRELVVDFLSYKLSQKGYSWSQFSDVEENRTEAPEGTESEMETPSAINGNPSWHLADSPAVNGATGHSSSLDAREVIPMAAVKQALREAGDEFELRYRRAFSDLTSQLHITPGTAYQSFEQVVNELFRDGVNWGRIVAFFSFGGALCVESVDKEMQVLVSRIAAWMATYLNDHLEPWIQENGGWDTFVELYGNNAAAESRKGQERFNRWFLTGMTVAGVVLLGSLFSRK

[11] = target: T4, Induced myeloid leukemia cell differentiation protein Mcl-1; type: functional
[12] = test system: Streptococcus; experiment: GAS UMAA2166 growth inhibition – luminescence, BacTiterGlo, counter-screen for streptokinase expression inhibitor project, dose response (AID 1915); type: functional, organism-based;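 further: potency for reduction of bacterial viability or growth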
[13] = THP-1 cell cytotoxicity, dose response, cytotoxicity control for non-replicating M. tuberculosis project (AID 489025); type: functional
[14] = Vero E6 cell cytotoxicity, dose response, cytotoxicity control for non-replicating M. tuberculosis project, secondary assay (AID 492998); type: functional, VeroE6; conditions: Vero C1008
[15] = target: Cysteine protease ATG4B (Homo sapiens, UniProt Q9Y4P1); type: functional;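 further: Fluorescence-based dose-response confirmation assay measuring inhibition of ATG4B activity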
Chain of Cysteine protease ATG4B (Q9Y4P1 whole entry): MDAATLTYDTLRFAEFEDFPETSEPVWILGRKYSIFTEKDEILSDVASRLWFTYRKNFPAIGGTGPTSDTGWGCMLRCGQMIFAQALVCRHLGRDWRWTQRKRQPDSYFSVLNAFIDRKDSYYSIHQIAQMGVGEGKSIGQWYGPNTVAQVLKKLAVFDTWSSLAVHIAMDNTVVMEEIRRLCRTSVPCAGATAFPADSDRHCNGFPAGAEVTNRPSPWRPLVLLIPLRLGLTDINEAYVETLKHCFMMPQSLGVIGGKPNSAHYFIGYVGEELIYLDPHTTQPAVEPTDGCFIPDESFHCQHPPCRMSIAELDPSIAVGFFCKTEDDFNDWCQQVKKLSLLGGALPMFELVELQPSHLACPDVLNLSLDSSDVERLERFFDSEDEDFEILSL

[16] = target: Phospholipase A2 (Homo sapiens, UniProt P04054); type: functional;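 further: confirmatory dose-response counterscreen on phospholipase A2, testing hits that came from an ultra-high-throughput screen for ATG4B inhibitors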
Chain of Phospholipase A2 (P04054 whole entry): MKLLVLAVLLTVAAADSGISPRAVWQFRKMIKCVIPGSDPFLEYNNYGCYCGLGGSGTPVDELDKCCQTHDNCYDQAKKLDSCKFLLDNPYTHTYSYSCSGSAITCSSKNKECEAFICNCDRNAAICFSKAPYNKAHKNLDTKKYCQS

[17] = Trypanosoma cruzi growth suppression in host cells – NIH3T3 host cells, beta-gal luminescence, confirmation (AID 2044); type: functional, cell-based;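 further: intracellular parasites grown in NIH/3T3 mouse fibroblasts as host cells; luminescent beta-galactosidase reporter signal from transgenic T. cruzi replicating inside host cells; inhibitors lower the luminescence signal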
[18] = NIH3T3 cell viability loss – ATP luminescence, mouse fibroblasts, counter-screen, dose response (AID 2010); type: functional, cell-based;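 further: cells exposed to compound for about 90 hours before reading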
[19] = target: T5, Heat shock factor protein 1 (Mus musculus, UniProt P38532); experiment: enhancement of HSF1-driven luciferase signal – cell-based, NIH3T3, luminescence, dose retest, confirmation (AID 435004); type: functional;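 further: stress induced by proteasome inhibitor MG132 added 30 min after compound; luciferase reporter driven by HSF1 response element in NIH3T3 cells; actives raise luminescence as potentiators of the MG132 stress response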
T5 sequence (P38532 whole entry): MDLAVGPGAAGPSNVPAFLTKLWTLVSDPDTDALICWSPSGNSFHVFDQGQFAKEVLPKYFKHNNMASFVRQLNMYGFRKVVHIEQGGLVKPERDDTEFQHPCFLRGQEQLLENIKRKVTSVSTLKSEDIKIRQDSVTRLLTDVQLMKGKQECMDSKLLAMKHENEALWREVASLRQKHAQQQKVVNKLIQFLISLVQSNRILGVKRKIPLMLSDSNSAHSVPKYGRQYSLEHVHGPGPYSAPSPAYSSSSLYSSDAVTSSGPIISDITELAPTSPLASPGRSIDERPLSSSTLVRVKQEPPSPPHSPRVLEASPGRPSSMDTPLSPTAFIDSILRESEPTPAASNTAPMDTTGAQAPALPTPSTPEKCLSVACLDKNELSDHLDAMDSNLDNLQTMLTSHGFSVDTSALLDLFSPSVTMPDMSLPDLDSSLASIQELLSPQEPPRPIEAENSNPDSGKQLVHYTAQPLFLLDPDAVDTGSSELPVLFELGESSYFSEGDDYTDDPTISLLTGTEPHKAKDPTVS

[20] = target: T6, Replicative DNA helicase DnaB (Mycobacterium tuberculosis, UniProt P9WMR3); experiment: DnaB intein splicing inhibitors, dose response, biochemical, cell-free fluorescence (AID 449749); type: functional
T6 sequence (P9WMR3 whole entry): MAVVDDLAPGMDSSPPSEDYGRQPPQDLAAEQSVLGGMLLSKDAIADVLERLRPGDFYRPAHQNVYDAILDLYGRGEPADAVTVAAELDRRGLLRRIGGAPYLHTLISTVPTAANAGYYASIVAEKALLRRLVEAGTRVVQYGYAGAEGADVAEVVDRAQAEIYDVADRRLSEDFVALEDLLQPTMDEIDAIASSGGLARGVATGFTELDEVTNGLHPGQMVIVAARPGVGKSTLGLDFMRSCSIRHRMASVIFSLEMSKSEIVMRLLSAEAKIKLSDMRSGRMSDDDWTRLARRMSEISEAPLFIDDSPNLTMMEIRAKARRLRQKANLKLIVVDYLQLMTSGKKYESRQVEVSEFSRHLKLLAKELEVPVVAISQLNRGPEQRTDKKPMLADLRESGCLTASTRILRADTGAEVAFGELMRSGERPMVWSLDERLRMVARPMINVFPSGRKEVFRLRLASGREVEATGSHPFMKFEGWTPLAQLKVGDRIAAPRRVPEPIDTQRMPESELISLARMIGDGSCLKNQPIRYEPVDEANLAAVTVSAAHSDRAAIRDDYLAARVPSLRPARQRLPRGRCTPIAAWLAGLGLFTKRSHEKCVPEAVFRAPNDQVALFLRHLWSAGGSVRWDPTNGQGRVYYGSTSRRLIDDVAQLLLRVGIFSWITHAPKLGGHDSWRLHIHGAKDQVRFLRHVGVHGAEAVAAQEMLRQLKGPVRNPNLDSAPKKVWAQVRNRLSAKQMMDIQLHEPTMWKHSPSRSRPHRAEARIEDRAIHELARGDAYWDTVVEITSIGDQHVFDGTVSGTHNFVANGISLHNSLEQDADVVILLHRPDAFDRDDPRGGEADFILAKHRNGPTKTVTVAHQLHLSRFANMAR

[21] = target: Apelin receptor (Homo sapiens, UniProt P35414); experiment: apelin receptor antagonists, arrestin read-out – cell-based, luminescent, enzyme-fragment complementation, selectivity assay for CCR6 antagonist project, SAR follow-up (AID 588359); type: functional
Chain of Apelin receptor (P35414 whole entry, the tested form may be a part): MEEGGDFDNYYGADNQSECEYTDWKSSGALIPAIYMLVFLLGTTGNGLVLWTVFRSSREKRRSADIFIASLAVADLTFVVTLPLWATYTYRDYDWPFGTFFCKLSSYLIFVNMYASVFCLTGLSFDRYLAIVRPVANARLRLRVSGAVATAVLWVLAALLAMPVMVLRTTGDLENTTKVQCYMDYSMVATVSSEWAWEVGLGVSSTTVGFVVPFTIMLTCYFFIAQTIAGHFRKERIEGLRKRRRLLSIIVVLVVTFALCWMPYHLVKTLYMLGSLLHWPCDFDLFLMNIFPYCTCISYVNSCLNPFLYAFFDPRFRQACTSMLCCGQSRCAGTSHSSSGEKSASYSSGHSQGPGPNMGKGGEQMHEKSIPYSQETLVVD

[22] = target: T7, Protein RecA (Mycobacterium tuberculosis, UniProt P9WHJ3); experiment: Fluorescence Cell-Free Homogeneous Dose Retest to Identify Inhibitors of RecA-Intein Splicing Activity. [Related pubchem assays (depositor defined):AID2097, AID2223, AID489010, AID492950]; type: functional
T7 sequence (P9WHJ3 whole entry): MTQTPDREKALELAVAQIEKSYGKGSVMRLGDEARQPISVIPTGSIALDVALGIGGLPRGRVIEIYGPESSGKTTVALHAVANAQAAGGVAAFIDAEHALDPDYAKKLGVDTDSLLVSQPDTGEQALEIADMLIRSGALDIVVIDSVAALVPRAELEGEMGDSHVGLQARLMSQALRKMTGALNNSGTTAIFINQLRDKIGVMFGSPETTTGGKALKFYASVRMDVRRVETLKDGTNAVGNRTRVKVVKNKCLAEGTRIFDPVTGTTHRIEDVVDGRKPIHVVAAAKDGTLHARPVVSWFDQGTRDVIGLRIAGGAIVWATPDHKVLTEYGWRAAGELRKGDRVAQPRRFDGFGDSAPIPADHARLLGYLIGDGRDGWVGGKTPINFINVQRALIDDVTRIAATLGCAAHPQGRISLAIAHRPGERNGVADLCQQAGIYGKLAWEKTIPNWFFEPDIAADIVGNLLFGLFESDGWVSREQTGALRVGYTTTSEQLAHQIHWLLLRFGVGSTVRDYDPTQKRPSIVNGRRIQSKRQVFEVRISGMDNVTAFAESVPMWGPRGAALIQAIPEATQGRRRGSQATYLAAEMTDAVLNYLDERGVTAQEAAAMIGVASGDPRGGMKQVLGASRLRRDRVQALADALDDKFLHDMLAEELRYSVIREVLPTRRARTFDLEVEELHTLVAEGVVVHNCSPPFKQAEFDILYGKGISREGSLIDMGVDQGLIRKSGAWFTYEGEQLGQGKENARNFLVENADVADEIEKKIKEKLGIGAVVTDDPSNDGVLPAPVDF

[23] = target: C-X-C chemokine receptor type 5 (Homo sapiens, UniProt P32302); experiment: inhibition of CXCL13-driven CXCR5 beta-arrestin recruitment – cell-based, luminescence, CHO-K1 PathHunter, selectivity assay for CCR6 antagonist project, SAR follow-up (AID 540340); type: functional
Chain of C-X-C chemokine receptor type 5 (P32302 whole entry): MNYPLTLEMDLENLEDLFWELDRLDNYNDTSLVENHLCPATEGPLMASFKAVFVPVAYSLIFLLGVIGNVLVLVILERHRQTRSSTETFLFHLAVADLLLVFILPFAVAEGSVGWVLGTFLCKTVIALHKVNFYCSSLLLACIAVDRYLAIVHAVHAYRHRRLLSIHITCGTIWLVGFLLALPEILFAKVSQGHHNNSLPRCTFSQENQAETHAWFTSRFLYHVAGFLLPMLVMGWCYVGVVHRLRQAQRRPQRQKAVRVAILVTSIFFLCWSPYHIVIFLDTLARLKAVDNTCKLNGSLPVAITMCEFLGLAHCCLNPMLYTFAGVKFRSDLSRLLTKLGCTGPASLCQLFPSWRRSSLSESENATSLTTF

[24] = target: C-C chemokine receptor type 6 (Homo sapiens, UniProt P51684); experiment: analog antagonism of CCR6 beta-arrestin signaling – cell-based, luminescent beta-arrestin readout, SAR follow-up (AID 540334); type: functional
[25] = cells
[26] = HEK-293T cell viability reduction – luminescence, B-cell screen hits, cytotoxicity control for BCR NF-kB inhibitor project, dose response (AID 489021); type: functional, cell-based;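 further: HEK-293T cells carrying an NF-kB luciferase reporter; cells exposed to compound for about 14 hours before viability readout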
[27] = test system: HEK293; experiment: HEK293T cell viability loss, resazurin readout – resazurin fluorescence, cytotoxicity control for NF-kB activator project, SAR follow-up (AID 493251); type: functional, cell-based; conditions: Homo sapiens

N#Cc1cc(-c2ccccc2)nc(Oc2ccc(Cl)cc2)n1
active: EC50 [1] 1.25 µM | IC50 [2] 7.97 µM | IC50 [3] 9.1 µM

C/C(=N/NC(=O)c1cc2ccccc2cc1O)C1C(=O)c2ccccc2C1=O
0.0588 µM (not active): IC50 [9]
> 150 µM (not active): EC50 [7]
active: CC50 [4] > 50 µM | IC50 [5] 12 µM | EC50 [6] 1.03 µM | IC50 [11] 2.11 µM | EC50 [12] 10.1 µM | CC50 [13] 17.7 µM | CC50 [14] 16.7 µM | IC50 [15] 5.43 µM | IC50 [16] 4.87 µM
> 109 µM (not active): IC50 [8] | IC50 [10]

CN1CCc2nc(SCc3ccc(Cl)cc3)c(C#N)c(-c3cccs3)c2C1
inactive: AC50 [20] > 380 µM | IC50 [21] > 66.6 µM | IC50 [23] 26.3 µM | IC50 [24] > 66.6 µM
active: EC50 [17] < 0.1 µM | EC50 [19] 10.1 µM | EC50 [22] 4.41 µM | EC50 [25] 0.014 µM
> 60 µM (not active): EC50 [18]

CCc1ccc(-c2nc(CSCC(=O)NC3CC3)c(C)o2)cc1
inactive: IC50 [26] > 80 µM | IC50 [27] > 80 µM
